Assay results taken from PMC7604503, “Cyclic peptides can engage a single binding pocket through highly divergent modes” (Proceedings of the National Academy of Sciences of the …, 2020).
Where a SMILES comes first, the peptide text is derived from it. Bridges are numbered along the chain shown (N, C = ends).

Experiments:
Test in all cases: BROMOscan competition binding assay (BromoMAX, Eurofins DiscoverX)
BRPF3 = molecular target: T1, BRPF3 (Homo sapiens, UniProt Q9ULD4); conditions: for Percent Control BRPF3: compound concentration 1000 nM, lower percentage control = stronger affinity
T1 construct: purchased Eurofins DiscoverX (BROMOscan, BromoMAX)
T1 sequence (Q9ULD4 1-1205): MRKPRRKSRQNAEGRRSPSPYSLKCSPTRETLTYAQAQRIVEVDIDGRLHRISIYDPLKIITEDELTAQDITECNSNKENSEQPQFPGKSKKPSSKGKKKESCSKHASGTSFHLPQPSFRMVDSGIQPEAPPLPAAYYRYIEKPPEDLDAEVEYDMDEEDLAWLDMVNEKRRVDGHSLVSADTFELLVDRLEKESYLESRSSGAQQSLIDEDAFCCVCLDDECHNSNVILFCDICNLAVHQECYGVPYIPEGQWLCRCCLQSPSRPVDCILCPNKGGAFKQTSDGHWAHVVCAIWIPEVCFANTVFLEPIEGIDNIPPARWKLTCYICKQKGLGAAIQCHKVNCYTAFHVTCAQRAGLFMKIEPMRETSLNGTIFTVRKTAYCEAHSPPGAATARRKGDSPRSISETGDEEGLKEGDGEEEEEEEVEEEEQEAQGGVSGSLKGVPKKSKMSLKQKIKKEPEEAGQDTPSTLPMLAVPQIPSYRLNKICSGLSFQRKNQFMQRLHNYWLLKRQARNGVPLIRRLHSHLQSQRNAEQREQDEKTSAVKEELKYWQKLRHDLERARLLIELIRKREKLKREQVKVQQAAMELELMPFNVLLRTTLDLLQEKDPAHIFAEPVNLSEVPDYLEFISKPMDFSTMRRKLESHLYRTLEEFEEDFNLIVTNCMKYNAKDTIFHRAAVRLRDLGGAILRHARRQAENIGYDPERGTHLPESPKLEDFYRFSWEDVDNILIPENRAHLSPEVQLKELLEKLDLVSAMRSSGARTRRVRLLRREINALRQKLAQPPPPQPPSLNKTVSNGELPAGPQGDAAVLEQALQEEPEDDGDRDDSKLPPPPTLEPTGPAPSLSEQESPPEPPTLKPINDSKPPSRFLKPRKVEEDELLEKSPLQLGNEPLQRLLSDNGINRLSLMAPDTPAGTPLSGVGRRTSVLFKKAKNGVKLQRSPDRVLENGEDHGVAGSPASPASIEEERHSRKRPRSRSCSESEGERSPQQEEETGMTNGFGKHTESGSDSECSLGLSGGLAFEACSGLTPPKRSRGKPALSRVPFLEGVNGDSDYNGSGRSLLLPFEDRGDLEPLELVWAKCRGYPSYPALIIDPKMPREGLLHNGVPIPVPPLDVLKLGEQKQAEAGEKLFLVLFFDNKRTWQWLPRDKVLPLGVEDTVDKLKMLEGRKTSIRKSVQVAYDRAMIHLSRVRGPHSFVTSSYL

BRD2(1) = molecular target: T2, BRD2(1) (Homo sapiens, UniProt P25440); conditions: for Percent Control BRD2(1): compound concentration 1000 nM, lower percentage control = stronger affinity
T2 construct: BRD2(1); purchased Eurofins DiscoverX (BROMOscan, BromoMAX)
T2 sequence (P25440 71-194 limits assumed): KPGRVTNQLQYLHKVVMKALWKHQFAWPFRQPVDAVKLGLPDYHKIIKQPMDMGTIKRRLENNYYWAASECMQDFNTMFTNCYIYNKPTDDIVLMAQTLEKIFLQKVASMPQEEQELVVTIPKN

CREBBP = molecular target: T3, CREBBP (Homo sapiens, UniProt Q92793); conditions: for Percent Control CREBBP: compound concentration 1000 nM, lower percentage control = stronger affinity
T3 construct: purchased Eurofins DiscoverX (BROMOscan, BromoMAX)

GCN5L2 = molecular target: T4, GCN5L2 (Homo sapiens, UniProt Q92830); conditions: for Percent Control GCN5L2: compound concentration 1000 nM, lower percentage control = stronger affinity
T4 construct: purchased Eurofins DiscoverX (BROMOscan, BromoMAX)
T4 sequence (Q92830 whole entry): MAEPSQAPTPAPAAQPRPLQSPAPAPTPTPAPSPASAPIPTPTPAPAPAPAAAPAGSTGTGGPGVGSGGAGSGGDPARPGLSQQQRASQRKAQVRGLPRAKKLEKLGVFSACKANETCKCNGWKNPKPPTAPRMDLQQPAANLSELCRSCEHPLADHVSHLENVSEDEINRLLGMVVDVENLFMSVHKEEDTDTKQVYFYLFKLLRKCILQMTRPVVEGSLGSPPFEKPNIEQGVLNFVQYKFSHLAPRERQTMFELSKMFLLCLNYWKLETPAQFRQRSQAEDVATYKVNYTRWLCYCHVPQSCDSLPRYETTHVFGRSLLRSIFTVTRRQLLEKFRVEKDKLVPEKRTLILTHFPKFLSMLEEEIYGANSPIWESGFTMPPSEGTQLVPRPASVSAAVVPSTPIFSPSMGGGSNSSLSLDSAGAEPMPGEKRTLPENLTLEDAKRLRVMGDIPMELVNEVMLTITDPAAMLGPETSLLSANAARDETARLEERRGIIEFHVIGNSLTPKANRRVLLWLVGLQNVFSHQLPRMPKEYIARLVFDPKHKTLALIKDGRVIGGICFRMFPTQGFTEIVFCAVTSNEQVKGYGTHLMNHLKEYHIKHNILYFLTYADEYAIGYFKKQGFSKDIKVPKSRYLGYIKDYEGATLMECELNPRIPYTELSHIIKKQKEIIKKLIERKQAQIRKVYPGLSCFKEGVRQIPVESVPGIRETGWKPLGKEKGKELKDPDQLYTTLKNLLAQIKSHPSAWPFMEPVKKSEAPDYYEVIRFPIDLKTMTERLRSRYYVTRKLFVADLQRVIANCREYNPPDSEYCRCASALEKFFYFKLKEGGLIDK

BRD3(2) = molecular target: T5, BRD3(2) (Homo sapiens, UniProt Q15059); conditions: for Percent Control BRD3(2): compound concentration 1000 nM, lower percentage control = stronger affinity
T5 construct: BRD3(2); purchased Eurofins DiscoverX (BROMOscan, BromoMAX)
T5 sequence (Q15059 306-416 limits assumed): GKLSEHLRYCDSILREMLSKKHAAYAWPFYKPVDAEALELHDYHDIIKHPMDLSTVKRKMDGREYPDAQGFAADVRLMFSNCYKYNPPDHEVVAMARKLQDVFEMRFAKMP

CECR2 = molecular target: T6, CECR2 (Homo sapiens, UniProt Q9BXF3); conditions: for Percent Control CECR2: compound concentration 1000 nM, lower percentage control = stronger affinity
T6 construct: purchased Eurofins DiscoverX (BROMOscan, BromoMAX)
T6 sequence (Q9BXF3 whole entry): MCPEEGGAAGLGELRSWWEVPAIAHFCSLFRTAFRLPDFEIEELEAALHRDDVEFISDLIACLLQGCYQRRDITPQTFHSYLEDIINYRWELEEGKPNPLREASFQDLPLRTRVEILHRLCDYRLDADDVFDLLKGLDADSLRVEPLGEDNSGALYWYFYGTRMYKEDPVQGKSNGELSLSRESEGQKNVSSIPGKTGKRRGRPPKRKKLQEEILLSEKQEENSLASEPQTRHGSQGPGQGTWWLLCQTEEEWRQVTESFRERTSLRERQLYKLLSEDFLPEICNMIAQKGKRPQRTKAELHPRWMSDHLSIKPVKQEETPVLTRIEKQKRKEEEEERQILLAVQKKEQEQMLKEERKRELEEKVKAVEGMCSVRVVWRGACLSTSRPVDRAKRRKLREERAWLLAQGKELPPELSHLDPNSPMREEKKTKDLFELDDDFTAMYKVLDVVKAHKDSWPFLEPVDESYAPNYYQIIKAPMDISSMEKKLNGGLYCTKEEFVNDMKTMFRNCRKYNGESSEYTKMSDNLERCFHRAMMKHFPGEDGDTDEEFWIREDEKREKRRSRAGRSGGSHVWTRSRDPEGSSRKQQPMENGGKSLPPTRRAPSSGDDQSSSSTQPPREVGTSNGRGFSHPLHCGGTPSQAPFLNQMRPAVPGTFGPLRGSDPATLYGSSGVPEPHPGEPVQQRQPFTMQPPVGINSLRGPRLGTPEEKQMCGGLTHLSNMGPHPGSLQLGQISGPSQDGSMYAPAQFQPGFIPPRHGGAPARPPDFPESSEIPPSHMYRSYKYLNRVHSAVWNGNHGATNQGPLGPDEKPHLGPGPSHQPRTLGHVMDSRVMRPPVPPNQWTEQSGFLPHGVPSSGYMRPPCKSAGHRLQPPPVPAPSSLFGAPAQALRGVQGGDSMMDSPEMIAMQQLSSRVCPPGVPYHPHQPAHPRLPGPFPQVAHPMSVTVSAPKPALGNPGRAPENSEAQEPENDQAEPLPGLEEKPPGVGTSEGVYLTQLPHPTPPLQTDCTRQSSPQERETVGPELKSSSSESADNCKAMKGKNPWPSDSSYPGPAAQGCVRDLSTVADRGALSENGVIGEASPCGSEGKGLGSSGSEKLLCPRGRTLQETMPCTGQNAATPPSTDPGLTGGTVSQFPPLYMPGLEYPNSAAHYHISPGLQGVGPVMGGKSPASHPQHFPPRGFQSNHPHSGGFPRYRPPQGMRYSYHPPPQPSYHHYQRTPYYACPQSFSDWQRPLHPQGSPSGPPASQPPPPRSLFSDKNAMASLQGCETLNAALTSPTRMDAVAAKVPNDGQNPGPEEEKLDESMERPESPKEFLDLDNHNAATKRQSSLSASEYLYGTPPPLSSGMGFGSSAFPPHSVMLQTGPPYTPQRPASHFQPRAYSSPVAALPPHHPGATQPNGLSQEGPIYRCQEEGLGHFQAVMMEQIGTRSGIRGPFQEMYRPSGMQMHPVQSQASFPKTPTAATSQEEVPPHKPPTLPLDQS

BRD9 = molecular target: T7, BRD9 (Homo sapiens, UniProt Q9H8M2); conditions: for Percent Control BRD9: compound concentration 1000 nM, lower percentage control = stronger affinity
T7 construct: purchased Eurofins DiscoverX (BROMOscan, BromoMAX)
T7 sequence (Q9H8M2 1-597): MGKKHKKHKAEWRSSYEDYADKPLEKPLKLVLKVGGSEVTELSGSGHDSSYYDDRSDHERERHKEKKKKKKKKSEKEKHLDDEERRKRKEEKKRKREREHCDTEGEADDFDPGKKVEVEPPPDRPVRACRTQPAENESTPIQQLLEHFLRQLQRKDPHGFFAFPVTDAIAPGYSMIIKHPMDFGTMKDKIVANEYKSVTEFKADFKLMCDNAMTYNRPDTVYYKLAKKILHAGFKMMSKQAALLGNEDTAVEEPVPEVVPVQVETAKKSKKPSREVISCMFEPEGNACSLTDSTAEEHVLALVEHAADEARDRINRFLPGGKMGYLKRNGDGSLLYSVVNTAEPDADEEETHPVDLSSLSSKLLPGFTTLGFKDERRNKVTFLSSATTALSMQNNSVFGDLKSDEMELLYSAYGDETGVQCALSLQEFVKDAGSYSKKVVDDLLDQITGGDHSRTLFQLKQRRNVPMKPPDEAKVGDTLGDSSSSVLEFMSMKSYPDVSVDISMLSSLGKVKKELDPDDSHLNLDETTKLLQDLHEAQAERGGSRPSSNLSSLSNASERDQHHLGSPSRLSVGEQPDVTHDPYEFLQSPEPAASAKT

BRD7 = molecular target: T8, BRD7 (Homo sapiens, UniProt Q9NPI1); conditions: for Percent Control BRD7: compound concentration 1000 nM, lower percentage control = stronger affinity
T8 construct: purchased Eurofins DiscoverX (BROMOscan, BromoMAX)
T8 sequence (Q9NPI1 1-651): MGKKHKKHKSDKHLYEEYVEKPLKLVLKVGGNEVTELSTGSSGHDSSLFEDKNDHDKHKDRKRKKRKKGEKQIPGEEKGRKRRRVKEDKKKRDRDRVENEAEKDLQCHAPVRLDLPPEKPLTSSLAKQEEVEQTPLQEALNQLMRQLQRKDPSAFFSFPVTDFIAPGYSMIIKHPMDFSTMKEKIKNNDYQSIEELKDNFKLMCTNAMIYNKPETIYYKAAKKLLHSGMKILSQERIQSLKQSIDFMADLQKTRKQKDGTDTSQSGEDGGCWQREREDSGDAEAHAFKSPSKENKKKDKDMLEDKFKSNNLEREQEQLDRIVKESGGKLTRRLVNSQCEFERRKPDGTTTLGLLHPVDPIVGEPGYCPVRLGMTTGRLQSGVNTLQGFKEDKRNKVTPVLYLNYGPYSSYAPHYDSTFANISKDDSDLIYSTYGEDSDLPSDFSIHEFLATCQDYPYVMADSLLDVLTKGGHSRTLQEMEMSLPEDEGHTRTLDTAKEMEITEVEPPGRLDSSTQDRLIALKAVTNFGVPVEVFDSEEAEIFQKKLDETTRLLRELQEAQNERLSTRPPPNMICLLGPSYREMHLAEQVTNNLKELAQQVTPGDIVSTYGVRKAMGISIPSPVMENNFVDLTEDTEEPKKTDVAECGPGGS

FALZ = molecular target: T9, FALZ (Homo sapiens, UniProt Q12830); conditions: for Percent Control FALZ: compound concentration 1000 nM, lower percentage control = stronger affinity
T9 construct: purchased Eurofins DiscoverX (BROMOscan, BromoMAX)

BAZ2A = molecular target: T10, BAZ2A (Homo sapiens, UniProt Q9UIF9); conditions: for Percent Control BAZ2A: compound concentration 1000 nM, lower percentage control = stronger affinity
T10 construct: purchased Eurofins DiscoverX (BROMOscan, BromoMAX)
T10 sequence (Q9UIF9 whole entry): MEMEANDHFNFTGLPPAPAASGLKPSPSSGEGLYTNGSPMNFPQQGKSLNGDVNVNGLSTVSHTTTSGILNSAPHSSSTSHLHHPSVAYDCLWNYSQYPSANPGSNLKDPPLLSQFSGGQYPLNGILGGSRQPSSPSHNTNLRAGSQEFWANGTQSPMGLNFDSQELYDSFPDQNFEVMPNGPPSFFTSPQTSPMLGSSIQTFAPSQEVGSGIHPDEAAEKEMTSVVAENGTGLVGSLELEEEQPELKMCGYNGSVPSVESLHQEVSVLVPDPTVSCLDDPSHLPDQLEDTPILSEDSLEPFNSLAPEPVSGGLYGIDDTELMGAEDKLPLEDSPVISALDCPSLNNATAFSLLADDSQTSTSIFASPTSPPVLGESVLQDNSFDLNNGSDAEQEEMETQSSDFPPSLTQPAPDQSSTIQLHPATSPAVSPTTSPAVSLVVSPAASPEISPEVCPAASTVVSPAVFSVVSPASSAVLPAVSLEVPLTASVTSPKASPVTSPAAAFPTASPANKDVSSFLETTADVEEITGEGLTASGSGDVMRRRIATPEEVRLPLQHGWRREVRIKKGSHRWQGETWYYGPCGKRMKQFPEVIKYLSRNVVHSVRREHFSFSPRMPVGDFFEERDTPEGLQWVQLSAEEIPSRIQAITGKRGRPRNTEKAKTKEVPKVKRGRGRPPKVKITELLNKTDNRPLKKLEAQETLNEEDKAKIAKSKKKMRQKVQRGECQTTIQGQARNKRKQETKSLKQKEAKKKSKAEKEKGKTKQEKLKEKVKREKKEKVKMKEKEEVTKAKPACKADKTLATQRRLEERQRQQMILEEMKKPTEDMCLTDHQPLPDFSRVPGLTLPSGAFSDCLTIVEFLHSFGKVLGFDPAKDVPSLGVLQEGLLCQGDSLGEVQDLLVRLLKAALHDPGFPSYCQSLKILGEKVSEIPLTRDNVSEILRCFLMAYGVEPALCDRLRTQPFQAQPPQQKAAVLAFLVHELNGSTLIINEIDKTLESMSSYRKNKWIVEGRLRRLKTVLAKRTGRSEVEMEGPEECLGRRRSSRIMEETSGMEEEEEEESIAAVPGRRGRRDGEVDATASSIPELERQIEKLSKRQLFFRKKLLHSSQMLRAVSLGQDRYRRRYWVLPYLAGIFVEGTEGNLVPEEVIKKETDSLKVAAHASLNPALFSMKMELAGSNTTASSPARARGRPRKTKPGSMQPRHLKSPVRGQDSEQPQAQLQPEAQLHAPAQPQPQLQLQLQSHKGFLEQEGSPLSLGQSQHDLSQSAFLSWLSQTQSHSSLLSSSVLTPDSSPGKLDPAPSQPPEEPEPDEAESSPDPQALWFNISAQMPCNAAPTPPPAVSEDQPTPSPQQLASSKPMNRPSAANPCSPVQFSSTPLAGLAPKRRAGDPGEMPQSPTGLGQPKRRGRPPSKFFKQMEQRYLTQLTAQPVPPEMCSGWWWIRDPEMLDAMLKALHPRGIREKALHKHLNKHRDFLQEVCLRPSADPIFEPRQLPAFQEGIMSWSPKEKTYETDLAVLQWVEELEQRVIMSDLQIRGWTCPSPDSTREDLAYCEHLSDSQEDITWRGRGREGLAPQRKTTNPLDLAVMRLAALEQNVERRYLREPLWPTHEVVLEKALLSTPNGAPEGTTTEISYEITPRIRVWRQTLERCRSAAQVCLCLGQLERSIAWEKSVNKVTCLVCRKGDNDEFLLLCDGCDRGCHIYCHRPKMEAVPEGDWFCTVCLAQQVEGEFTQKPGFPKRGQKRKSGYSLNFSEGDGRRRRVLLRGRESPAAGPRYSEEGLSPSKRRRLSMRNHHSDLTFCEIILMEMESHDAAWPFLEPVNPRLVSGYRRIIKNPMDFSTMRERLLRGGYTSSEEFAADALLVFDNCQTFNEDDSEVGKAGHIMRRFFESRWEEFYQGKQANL

TRIM33(PHD,Bromo.) = test system: TRIM33(PHD,Bromo.); parameters: species or system human; conditions: compound concentration 1000 nM; lower percentage control = stronger affinity

## CC[C@H](C)[C@@H]1NC(=O)[C@H]([C@@H](C)O)NC(=O)[C@H](CCCCN)NC(=O)[C@H](Cc2c[nH]c3ccccc23)NC(=O)CSC[C@@H](C(N)=O)NC(=O)[C@H](CCC(N)=O)NC(=O)[C@H](CCCCNC(C)=O)NC(=O)[C@H]([C@@H](C)O)NC(=O)[C@H](CCCNC(=N)N)NC(=O)[C@H](Cc2c[nH]c3ccccc23)NC(=O)[C@H]([C@@H](C)O)NC(=O)[C@H](CCCCNC(C)=O)NC(=O)CNC(=O)[C@H](CCCCNC(C)=O)NC1=O [3.1B] ({CH2CO}-WKTIK(Ac)GK(Ac)TWRTK(Ac)QC-NH2; thioether N-14)
BRPF3
  Percent Control BRPF3: 100%
BRD2(1)
  Percent Control BRD2(1): 21%
CREBBP
  Percent Control CREBBP: 100%
GCN5L2
  Percent Control GCN5L2: 100%
BRD3(2)
  Percent Control BRD3(2): 100%
CECR2
  Percent Control CECR2: 100%
BRD9
  Percent Control BRD9: 100%
BRD7
  Percent Control BRD7: 99%
FALZ
  Percent Control FALZ: 73%
BAZ2A
  Percent Control BAZ2A: 15%
TRIM33(PHD,Bromo.)
  Percent Control TRIM33(PHD,Bromo.): 100%

## CC[C@H](C)[C@@H]1NC(=O)[C@H](Cc2c[nH]c3ccccc23)NC(=O)[C@H](Cc2c[nH]c3ccccc23)NC(=O)CSC[C@@H](C(N)=O)NC(=O)CNC(=O)[C@H](CCCCNC(C)=O)NC(=O)[C@H](CCCCN)NC(=O)[C@H](C(C)C)NC(=O)[C@H](CCCCNC(C)=O)NC(=O)[C@@H]2CCCN2C(=O)[C@H]([C@@H](C)CC)NC1=O [3.1C] ({CH2CO}-WWIIPK(Ac)VKK(Ac)GC-NH2; thioether N-11)
BRPF3
  Percent Control BRPF3: 95%
BRD2(1)
  Percent Control BRD2(1): 2.4%
CREBBP
  Percent Control CREBBP: 100%
GCN5L2
  Percent Control GCN5L2: 100%
BRD3(2)
  Percent Control BRD3(2): 13%
CECR2
  Percent Control CECR2: 99%
BRD9
  Percent Control BRD9: 95%
BRD7
  Percent Control BRD7: 96%
FALZ
  Percent Control FALZ: 93%
BAZ2A
  Percent Control BAZ2A: 99%
TRIM33(PHD,Bromo.)
  Percent Control TRIM33(PHD,Bromo.): 100%

## CC[C@H](C)[C@H](NC(=O)[C@H](CCCNC(=N)N)NC(=O)[C@H](CCCCNC(C)=O)NC(=O)[C@H](CCCNC(=N)N)NC(=O)[C@H](CC(C)C)NC(=O)[C@@H]1CSCC(=O)N[C@@H](Cc2c[nH]c3ccccc23)C(=O)N[C@@H](CCCCNC(C)=O)C(=O)NCC(=O)N[C@@H](Cc2ccc(O)cc2)C(=O)N[C@@H](CC(C)C)C(=O)N1)C(=O)N[C@@H](CCC(N)=O)C(=O)N[C@@H](CCCNC(=N)N)C(=O)N[C@H](C(=O)N[C@@H](Cc1ccc(O)cc1)C(=O)N[C@@H](CC(N)=O)C(N)=O)[C@@H](C)O [4.2C] ({CH2CO}-WK(Ac)GYLCLRK(Ac)RIQRTYN-NH2; thioether N-6)
BRPF3; read-out: Percent Control BRPF3
  remaining binding at 1 µM: 92%
BRD2(1)
  percent of control binding at 1 µM: 85%
CREBBP; read-out: Percent Control CREBBP
  remaining binding at 1 µM: 100%
GCN5L2
  percent of control binding at 1 µM: 96%
BRD3(2); read-out: Percent Control BRD3(2)
  remaining binding at 1 µM: 96%
CECR2
  percent of control binding at 1 µM: 99%
BRD9
  percent of control binding at 1 µM: 89%
BRD7; read-out: Percent Control BRD7
  remaining binding at 1 µM: 97%
FALZ; read-out: Percent Control FALZ
  remaining binding at 1 µM: 96%
BAZ2A; read-out: Percent Control BAZ2A
  remaining binding at 1 µM: 100%
TRIM33(PHD,Bromo.)
  Percent Control TRIM33(PHD,Bromo.): 100%
